Data on 2 compounds can be found in ChEMBL document CHEMBL1221225, “A small molecule that directs differentiation of human ESCs into the pancreatic lineage” (Nat Chem Biol, 2009).

Holding throughout (format): cell-based
A short description of experiment [1]: Activation of PKC signaling in human HUES8 cells assessed as increase in Pdx1-expressing cells at 500 nM after 4 days by immunocytochemistry pregrown in medium with Wnt3a, activin A, FGF10, KAAD-cyclopamine and retinoic acid relative to ILV treated cells.
Experiment [2] is described as follows: Activation of PKC signaling in human HUES8 definitive endoderm cells assessed as increase in Pdx1-expressing cells at 500 nM after 4 days by immunocytochemistry (reference value: 2.8+/-0.6%).
Experiment [3] is described as follows: Activation of PKC signaling in human HUES8 cells assessed as increase in Pdx1-expressing cells at 14 nM after 4 days by immunocytochemistry pregrown in medium with Wnt3a, activin A, FGF10, KAAD-cyclopamine and retinoic acid relative to ILV treated cells.
Experiment [4] can be described thus: Activation of PKC signaling in human HUES8 definitive endoderm cells assessed as increase in Pdx1-expressing cells at 14 nM after 4 days by immunocytochemistry (reference value: 2.8+/-0.6%).

Broadly, the inhibition is the drop in the measured response relative to a control, in per cent. `CC(C)[C@H]1C(=O)N[C@H](CO)Cc2cc(NC(=O)/C=C/C=C/c3ccc(C(F)(F)F)cc3)ccc2N1C`: the figures for the inhibition in experiment [1] and in experiment [2] were 15.4% and 12.2%, respectively.
Take `CCCCCCCCCCCCCC(=O)O[C@@H]1[C@@H](C)[C@@]2(O)[C@@H](C=C(CO)C[C@]3(O)C(=O)C(C)=C[C@@H]23)[C@@H]2C(C)(C)[C@]12OC(C)=O`: the results for the inhibition in experiment [3] and in experiment [4] were 21.3% and 18.3%, respectively.
